From US20210246115A1 (Bioimics AB, priority 2017, published 2021) come the findings set out here.

Molecules are shown by their SMILES. Values after ≈ are worked out from the molar mass of the structure shown. Structures can show the parent of a compound that is named as a salt. Where two headings read alike, the source gives them in different places.

Assay [1] concerns E. coli RNase P RNA, M1 RNA. Description: Inhibition of bacterial RNase P activity, IC50 determination (cleavage of pATSerUG by M1 RNA). It counts as biochemical. As to conditions: NI: No inhibition.
Assay [2] relates to Escherichia coli (ATCC25922). Description: MIC, broth microdilution (CLSI), Escherichia coli. As to conditions: for MIC: Escherichia coli, ATCC25922, read-out: E. coli ATCC 25922 MIC, Table XIII; for E. coli ATCC 25922 MIC: Table XIII.
The subject of assay [3] is Staphylococcus aureus subsp. aureus (ATCC29213). Description: MIC, broth microdilution (CLSI), Staphylococcus aureus ATCC29213. The class given is cell-based. As to conditions: for MIC: Staphylococcus aureus; for S. aureus ATCC 29213 MIC: Table XIII, hydrochloride salt.
Where [4] appears, read: ATCC29213, Table XIII, read-out: S. aureus ATCC 29213 MIC.
The mark [5] stands for this setting: ATCC29213, read-out: S. aureus ATCC 29213 MIC, Table XIII.

For the compound `Cl.Cl.NCCCNCCC(c1cc(Cl)cc(Cl)c1)c1cn(C2CCCCC2)c2ccccc12` (stereo not drawn) [Compound 349, N1-(3-(1-cyclohexyl-1H-indol-3-yl)-3-(3,5-dichlorophenyl)propyl) propane-1,3-diamine hydrochloride salt], the IC50 in assay [1] stood at 16 µM. The MIC in assay [2] came out at 4 µg/mL; in assay [3] (setting [4]), 2 µg/mL.
In the same order, the values of `Cl.Cl.NCCCNCCC(c1cccc(C(F)(F)F)c1)c1cn(C2CCCCC2)c2ccccc12` (stereo not drawn) [Compound 351, N1-(3-(1-cyclohexyl-1H-indol-3-yl)-3-(3-(trifluoromethyl)phenyl)propyl)propane-1,3-diamine hydrochloride salt] are 16 µM, 4 µg/mL and 4 µg/mL.
The like results for `Cc1cccc(C(CCNC2CCN(C(=N)N)CC2)c2cn(C3CCCCC3)c3ccccc23)c1.Cl` (stereo not drawn) [Compound 353, 4-((3-(1-cyclohexyl-1H-indol-3-yl)-3-(m-tolyl)propyl)amino)piperidine-1-carboximidamide hydrochloride salt] were, in that order, 19 µM, 32 µg/mL and 4 µg/mL.
In the same order, the values of `Cl.Cl.NCCCNCCC(c1cccc(Cl)c1)c1cn(C2CCCCC2)c2ccccc12` (stereo not drawn) [Compound 356, N1-(3-(3-chlorophenyl)-3-(1-cyclohexyl-1H-indol-3-yl)propyl) propane-1,3-diamine hydrochloride salt] are 37 µM, 4 µg/mL and 4 µg/mL.
As for `Cc1cccc(C(CCNCCCN)c2cn(C3CCCCC3)c3ccccc23)c1` (stereo not drawn) [Compound 358, N1-(3-(1-cyclohexyl-1H-indol-3-yl)-3-(m-tolyl)propyl)propane-1,3-diamine], 38 µM corresponded to half-maximal inhibition in assay [1] (IC50). Also, the MIC in assay [2] came out at 4 µg/mL (≈ 9.91 µM); in assay [3] (setting [4]) it was 8 µg/mL (≈ 19.8 µM).
In the same order, the values of `Cc1ccccc1-c1ccc2c(c1)c(CCCNCCCN)cn2C1CCCCC1.Cl.Cl` [Compound 362, N1-(3-(1-cyclohexyl-5-(o-tolyl)-1H-indol-3-yl)propyl)propane-1,3-diamine hydrochloride salt] are 8.3 µM, 4 µg/mL and 4 µg/mL.
In assay [1], `Cc1cccc(C(CCN(CCCN)CCCN)c2cn(C3CCCCC3)c3ccccc23)c1` (stereo not drawn) [Compound 363, N1-(3-aminopropyl)-N1-(3-(1-cyclohexyl-1H-indol-3-yl)-3-(m-tolyl)propyl)propane-1,3-diamine hydrochloride salt] yielded an IC50 of 12 µM. For the same compound, the MIC is 32 µg/mL in assay [2] and 16 µg/mL in assay [3] (setting [5]).
In assay [1], `Cc1cccc(C(CCNCCCNS(=O)(=O)c2ccc(F)cc2)c2cn(C3CCCCC3)c3ccccc23)c1` (stereo not drawn) [Compound 365, N-(3-((3-(1-cyclohexyl-1H-indol-3-yl)-3-(m-tolyl)propyl)amino)propyl)-4-fluorobenzenesulfonamide] returned an IC50 of 21 µM. Further, the figures for the MIC in assay [2] and in assay [3] (setting [4]) were greater than 128 µg/mL and 4 µg/mL (≈ 7.12 µM), respectively.
The like results for `Cl.Cl.NCCCNCCC(c1cccc(OC(F)(F)F)c1)c1cn(C2CCCCC2)c2ccccc12` (stereo not drawn) [Compound 370, N1-(3-(1-cyclohexyl-1H-indol-3-yl)-3-(3-(trifluoromethoxy)phenyl)propyl) propane-1,3-diamine salt] were, in that order, 8.4 µM, 4 µg/mL and 4 µg/mL.
The like results for `CC(=O)N1CCC(NCCC(c2cccc(C)c2)c2cn(C3CCCCC3)c3ccccc23)CC1.Cl` (stereo not drawn) [Compound 373, 1-(4-((3-(1-cyclohexyl-1H-indol-3-yl)-3-(m-tolyl)propyl)amino)piperidin-1-yl) ethan-1-one salt] were, in that order, 120 µM, greater than 128 µg/mL and 8 µg/mL.
`Cc1cccc(C(CCNC2CCN(C(N)=O)CC2)c2cn(C3CCCCC3)c3ccccc23)c1.Cl.Cl` (stereo not drawn) [Compound 374, 4-((3-(1-cyclohexyl-1H-indol-3-yl)-3-(m-tolyl)propyl)amino)piperidine-1-carboxamide hydrochloride salt] came in with a concentration for half-maximal inhibition (IC50) in assay [1] of 53 µM. Moreover, the minimum inhibitory concentration (MIC) in assay [2] was greater than 128 µg/mL; in assay [3] (setting [4]) it was 16 µg/mL.
The like results for `Cc1cccc(-c2ccc3c(c2)c(CCCNCCCN)cn3CC2CCCCC2)c1.Cl.Cl` [Compound 375, N1-(3-(1-(cyclohexylmethyl)-5-(m-tolyl)-1H-indol-3-yl)propyl)propane-1,3-diamine hydrochloride salt] were, in that order, 4.7 µM, 4 µg/mL and 4 µg/mL.
For the compound `NCCCNCCC(c1cccc(OC(F)(F)F)c1)c1cn(C2CCCCC2)c2ccc(C(N)=O)cc12` (stereo not drawn) [Compound 376, 3-(3-((3-aminopropyl)amino)-1-(3-(trifluoromethoxy)phenyl)propyl)-1-cyclohexyl-1H-indole-5-carboxamide], the IC50 in assay [1] was 40 µM. For the same compound, the minimal inhibitory concentration (MIC) in assay [2] amounted to 32 µg/mL (≈ 61.9 µM); in assay [3] (setting [4]) it was 16 µg/mL (≈ 31 µM).
The like results for `Cc1cccc(C(CCN[C@H]2CC[C@H](NC(N)=O)CC2)c2cn(C3CCCCC3)c3ccccc23)c1` (stereo partly drawn) [Compound 377, 1-((1R,4R)-4-((3-(1-cyclohexyl-1H-indol-3-yl)-3-(m-tolyl)propyl)amino)cyclohexyl) urea] were, in that order, 130 µM, greater than 128 µg/mL and 16 µg/mL (≈ 32.9 µM).
The like results for `Cc1cccc(C(CCNCCCN)c2cn(C3CCCCC3)c3ccc(C#N)cc23)c1.Cl.Cl` (stereo not drawn) [Compound 379, 3-(3-((3-aminopropyl)amino)-1-(m-tolyl)propyl)-1-cyclohexyl-1H-indole-5-carbonitrile hydrochloride salt] were, in that order, 34 µM, 8 µg/mL and 8 µg/mL.
In the same order, the values of `NCCCNC1CCCC(c2cn(C3CCCCC3)c3ccc(Br)cc23)C1` (stereo not drawn) [Compound 380, N1-(3-(5-bromo-1-cyclohexyl-1H-indol-3-yl)cyclohexyl)propane-1,3-diamine salt] are 35 µM, 4 µg/mL and 4 µg/mL.
`Cl.Cl.N#Cc1ccc2c(c1)c(C(CCNCCCN)C1CCCCC1)cn2C1CCCCC1` (stereo not drawn) [Compound 382, 3-(3-((3 - aminopropyl)amino)-1-cyclohexylpropyl)-1-cyclohexyl-1H-indole-5-carbonitrile hydrochloride salt] displayed an IC50 in assay [1] of 20 µM. Besides, the MIC in assay [2] and in assay [3] (setting [4]) was 4 µg/mL in each case.
The compound `NCCCNCCC(c1cn(C2CCCCC2)c2ccccc12)C1CCCCC1` (stereo not drawn) [Compound 383, N1-(3-cyclohexyl-3-(1-cyclohexyl-1H-indol-3-yl)propyl)propane-1,3-diamine] returned an IC50 in assay [1] of 28 µM. Further, the MIC in assay [2] and in assay [3] (setting [4]) was 4 µg/mL (≈ 10.1 µM) throughout.
Consider `Cc1cccc(-c2ccc3c(c2)c(CCNCCCN)cn3C2CCCCC2)c1.Cl.Cl` [Compound 384, N1-(2-(1-cyclohexyl-5-(m-tolyl)-1H-indol-3-yl)ethyl)propane-1,3-diamine hydrochloride salt], for which, in assay [1], the IC50 is 19 µM. Besides, the MIC in assay [2] and in assay [3] (setting [4]) was 4 µg/mL each time.
Turning to `NC1CCC(NCCC(c2cccc(OC(F)(F)F)c2)c2cn(C3CCCCC3)c3ccccc23)CC1` [Compound 393, (1S,4S)- -N1-(3-(1-cyclohexyl-1H-indol-3-yl)-3-(3-(trifluoromethoxy)phenyl)propyl)cyclohexane-1,4-diamine hydrochloride salt], the IC50 in assay [1] (hydrochloride salt) is 16 µM. The results for the minimum inhibitory concentration (MIC) in assay [2] and in assay [3] (setting [5]) were 8 µg/mL and 4 µg/mL, respectively.
In turn, `Cc1cccc(C(CCNCC(N)CN)c2cn(C3CCCCC3)c3ccccc23)c1` (stereo not drawn) [Compound 394, N1-(3-(1-cyclohexyl-1H-indol-3-yl)-3-(m-tolyl)propyl)propane-1,2,3-triamine hydrochloride salt] registered an IC50 in assay [1] of 15 µM. Besides, the minimum inhibitory concentration (MIC) is 32 µg/mL in assay [2] and 8 µg/mL in assay [3] (setting [5]).
On to `Cc1cccc(C(CCNC2CCC(N)CC2)c2cn(C3CCCCC3)c3ccccc23)c1` [Compound 395, (1S,4S)- -N1-(3-(1-cyclohexyl-1H-indol-3-yl)-3-(m-tolyl)propyl) cyclohexane-1,4-diamine hydrochloride salt], for which the concentration for half-maximal inhibition (IC50) in assay [1] (hydrochloride salt) came to 8.2 µM. The “E. coli ATCC 25922 MIC” value in assay [2] (hydrochloride salt) came out at 8 µg/mL. Moreover, in assay [3], the “S. aureus ATCC 29213 MIC” value was determined as 1 µg/mL.
In assay [1], `Cc1cccc(-c2ccc3c(c2)c(C2CCCC(NC4CCNCC4)C2)cn3C2CCCCC2)c1` (stereo not drawn) [Compound 396, N-(3-(1-cyclohexyl-5-(m-tolyl)-1H-indol-3-yl)cyclohexyl)piperidin-4-amine hydrochloride salt] had an IC50 of 12 µM. Moreover, the minimal inhibitory concentration (MIC) in assay [2] came to 4 µg/mL; in assay [3] (setting [5]) it was 2 µg/mL.
In the case of `NC1CCC(NCCC(c2cccc(OC(F)(F)F)c2)c2cn(C3CCCCC3)c3ccccc23)CC1` [Compound 397, (1S,4S)-N1-(3-(1-cyclohexyl-1H-indol-3-yl)-3-(3-(trifluoromethoxy)phenyl)propyl)cyclohexane-1,4-diamine hydrochloride salt], the IC50 in assay [1] (hydrochloride salt) was 6 µM. Besides, the “E. coli ATCC 25922 MIC” value in assay [2] is 8 µg/mL. In addition, in assay [3], the “S. aureus ATCC 29213 MIC” value was 2 µg/mL.
For the compound `Cl.Cl.N[C@H]1CC[C@H](NCCCc2cn(C3CCCCC3)c3ccc(C4CCCCC4)cc23)CC1` [Compound 398, (1r,4r)-N1-(3-(1,5-dicyclohexyl-1H-indol-3-yl)propyl)cyclohexane-1,4-diamine hydrochloride salt], the midpoint of inhibition in assay [1], the IC50, lay at 9 µM. The MIC is 4 µg/mL in assay [2] and 2 µg/mL in assay [3] (setting [4]).
The like results for `Cl.Cl.NCCCNCCCc1cn(C2CCCCC2)c2ccc(C3CCCCC3)cc12` [Compound 399, N1-(3-(1,5-dicyclohexyl-1H-indol-3-yl)propyl)propane-1,3-diamine hydrochloride salt] were, in that order, 6.3 µM, 4 µg/mL and 4 µg/mL.
